Measured values as given in patent publication EP4748839A1 (CSPC Zhongqi Pharmaceutical Technology (Shijiazhuang) Co., …, priority 2023, dated 2025).

Assays:
GLP-1R = target: T1, GLP-1R (Homo sapiens, UniProt P43220); assay: GLP-1R agonistic effect in GLP1R-cAmp-Luc cells (luciferase reporter; titled 'Enzymatic assay'); format: cell-based; details: for EC50: 4 hours incubation, firefly luciferin signal; for EC50 of Positive reference / EC50 of Compound of the Present Application: Positive reference is PF-06882961
T1 construct: expressed in transfected cells
T1 sequence (P43220 24-463, species assumed): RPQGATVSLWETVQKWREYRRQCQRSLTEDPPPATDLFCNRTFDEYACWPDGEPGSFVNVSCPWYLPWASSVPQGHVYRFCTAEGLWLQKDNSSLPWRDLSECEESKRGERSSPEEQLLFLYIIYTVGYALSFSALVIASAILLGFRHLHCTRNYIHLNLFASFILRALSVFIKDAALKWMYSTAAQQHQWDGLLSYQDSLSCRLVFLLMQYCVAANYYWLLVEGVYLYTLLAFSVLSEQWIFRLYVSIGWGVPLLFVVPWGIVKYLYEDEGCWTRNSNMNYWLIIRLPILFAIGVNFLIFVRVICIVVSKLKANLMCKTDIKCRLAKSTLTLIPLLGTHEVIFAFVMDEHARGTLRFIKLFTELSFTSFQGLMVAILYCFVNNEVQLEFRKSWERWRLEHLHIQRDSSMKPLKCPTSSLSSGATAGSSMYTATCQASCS
Protocol: The GLP-1R agonistic effects of the test compounds were determined using GLP1R-cAmp-Luc cells. 1) The test compound was dissolved in DMSO and mixed well until the test compound was completely dissolved. The test compounds were dissolved in DMSO to prepare 10 mM stock solutions. All compounds were diluted with DMEM medium (high sugar, Puromycin^+, Hygromycin B^+) to an initial concentration of 1250 nM, and then subjected to 5-fold serial dilution to a total of 7 concentration gradients. The GLP1R-cAmp-Luc cells were seeded in white-wall 96-well cell culture plates at a density of 1×10^5/mL, with 90 µL cell suspension per well; the test compound at each of the 7 concentration gradients was added at 10 µL per well, with the actual initial working concentration of 125 nM; and the cells were placed in a 37 °C, 5% CO2 cell incubator for 4 hours; 2) 100 µL of luciferin potassium salt solution diluted to 300 µg/mL in PBS was added to each well at a working concentration of 150 µg/mL and incubated at room temperature for 30 minutes; 3) fluorescence signals of firefly luciferin were measured with a multifunctional microplate reader (PerkinElmer, Nivo); and the fluorescence values were processed using GraphPad Prism software to calculate EC50 values.

[1] = In vivo pharmacokinetic assay in mice; details: mouse; ICR mice (female), oral gavage 10 mg/kg, plasma
Protocol: Experimental animals: ICR mice (female, 22-25 g), purchased from Beijing Vital River Laboratory Animal Technology Co., Ltd.
Experimental procedure: ICR mice were administered the test compounds by gavage. Whole blood samples of the mice were collected at 15 min, 0.5 h, 1 h, 2 h, 4 h, 8 h and 24 h after administration and centrifuged to isolate plasma. The compound concentration was measured by LC-MS/MS, and pharmacokinetic parameters such as Area Under the Concentration-Time Curve (AUC) were calculated using Winnolin software.
Oral gavage dose: 10 mg/kg.
Measurement method: Quantitative analysis was carried out in the LC/MS/MS system after pretreatment with a protein precipitation method.

hERG channel = hERG channel (Homo sapiens, UniProt Q12809); assay: hERG test, automated patch-clamp in CHO cells stably expressing hERG; format: cell-based; details: hERG current inhibition, 0.37-30 µM, n = 2
Sequence of hERG channel (Q12809 whole entry): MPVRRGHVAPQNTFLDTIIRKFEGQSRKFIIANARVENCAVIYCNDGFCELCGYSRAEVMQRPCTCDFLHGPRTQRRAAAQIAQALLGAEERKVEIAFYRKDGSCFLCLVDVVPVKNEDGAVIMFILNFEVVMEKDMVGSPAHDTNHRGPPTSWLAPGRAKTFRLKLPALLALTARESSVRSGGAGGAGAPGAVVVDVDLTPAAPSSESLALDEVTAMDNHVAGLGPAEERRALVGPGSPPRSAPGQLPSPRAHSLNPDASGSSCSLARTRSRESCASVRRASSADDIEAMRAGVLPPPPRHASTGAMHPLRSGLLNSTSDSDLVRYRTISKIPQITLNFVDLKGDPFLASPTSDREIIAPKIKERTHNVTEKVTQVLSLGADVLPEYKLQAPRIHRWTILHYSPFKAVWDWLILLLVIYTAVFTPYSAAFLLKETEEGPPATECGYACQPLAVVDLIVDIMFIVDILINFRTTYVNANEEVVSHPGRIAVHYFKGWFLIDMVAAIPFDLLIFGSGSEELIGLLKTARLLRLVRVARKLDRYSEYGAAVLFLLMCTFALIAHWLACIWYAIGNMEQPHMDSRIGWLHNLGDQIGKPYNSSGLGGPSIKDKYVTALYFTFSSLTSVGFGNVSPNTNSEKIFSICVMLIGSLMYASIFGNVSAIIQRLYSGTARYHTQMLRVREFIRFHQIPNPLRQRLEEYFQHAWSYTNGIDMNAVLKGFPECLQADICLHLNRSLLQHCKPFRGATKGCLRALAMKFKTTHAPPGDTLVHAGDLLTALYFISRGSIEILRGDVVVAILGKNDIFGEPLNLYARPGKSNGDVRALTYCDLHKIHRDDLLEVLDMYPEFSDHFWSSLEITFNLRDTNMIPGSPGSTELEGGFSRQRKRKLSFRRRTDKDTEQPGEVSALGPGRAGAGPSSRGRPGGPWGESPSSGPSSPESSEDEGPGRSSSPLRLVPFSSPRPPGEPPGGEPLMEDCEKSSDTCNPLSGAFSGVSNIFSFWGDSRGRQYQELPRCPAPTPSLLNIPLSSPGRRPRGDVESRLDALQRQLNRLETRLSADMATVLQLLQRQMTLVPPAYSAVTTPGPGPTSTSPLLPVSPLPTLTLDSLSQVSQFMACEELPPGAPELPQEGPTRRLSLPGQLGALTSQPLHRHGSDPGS
Protocol: The potential inhibitory effects of the test compounds on the hERG channel were assessed using an automated patch-clamp system. In this study, the CHO cell line stably expressing the hERG gene was used, with Cisapride as the positive control.
The CHO-hERG-DUO cell line stably expressing the hERG channel was purchased from B'SYS GmbH. The cells were cultured in F12 (HAM) medium supplemented with 10%FBS, 100 U/mL penicillin-streptomycin, 100 µg/mL hygromycin, and 100 µg/mL G418. The cells were passaged three times per week and maintained at about 80% confluence.
The test compounds were dissolved in DMSO to prepare stock solutions at a final concentration of 10 mM; the stock solution was then serially diluted with DMSO in a 1: 3 ratio (3.33 mM, 1.11 mM and 0.37 mM); and the final concentrations of the test compounds were 30 µM, 10 µM, 3.33 µM, 1.11 µM and 0.37 µM.
A baseline was established using the blank vehicle. […] The hERG current was recorded for no less than 5 minutes to reach a steady state, and then 5 scans were captured. […] The experiments were performed in duplicate (n = 2) and hERG current inhibition by five concentrations of the compound were measured to determine the IC50.
The percent current inhibition was calculated using the following equation. […]
The IC50 was calculated using Graphpad Prism 8.0.

[2] = tested on: C57BL/6 hGLP1R transgenic mice; assay: Determination of food intake inhibition rate; format: in vivo; details: C57BL/6 hGLP1R mice, gavage, 2mpk, administrated once
Protocol: The food intake of C57BL/6 hGLP1R transgenic mice in each cage was measured at 18:00 on the day before administration, and the remaining weight of food was measured at 8: 00 on the next day (day 0) The difference between the two measurements was recorded as the baseline food intake weight. The mice were randomly grouped (test compound group and vehicle group) according to the baseline food intake and body weight. The food intake and body weight of the mice at 0 h were measured before administration. The mice were administered by gavage at 20:00 on day 0, and then the food intake and body weight of the mice were measured at specific time points. The phase (within a defined period of time) food intake, phase food intake rate, cumulative (after administration to a specific time point) food intake, cumulative food intake rate and body weight were finally statistically analyzed to evaluate the food intake inhibitory effect of the compounds. Cumulative Food intake (g) = (mbefore)−(mafter). [formula]
"m before" is the weight of food before food intaking for the period of time, and "m after" is the weight of food after food intaking for the period of time. Food intake inhibition rate (%) = (1−(madministrationgroup)/(mvehiclegroup))*100. [formula]
"m administration group" is the cumulative food intake of the administration group during the period of time, and "m vehicle group" is the cumulative food intake of the vehicle group during the period of time.

| SMILES | EC50 (GLP-1R) [nM] | AUC(0-t) [1] [ng·h/mL] | EC50 of Positive reference / EC50 of Compound of the Present Application (GLP-1R) | also measured |
| --- | --- | --- | --- | --- |
| COc1cc(C(F)(F)F)ccc1COc1cccc(-c2cc(F)c(Cc3nc4c(OC)cc(C(=O)O)cc4n3CC3(CF)CC3)c3c2OCC3)n1 [Compound 89, 2-((5-Fluoro-7-(6-((2-methoxy-4-(trifluoromethyl)benzyl)oxy)pyridin-2-yl)-2,3-dihydrobenzofuran-4-yl)methyl)-1-((1-(fluoromethyl)cyclopropyl)methyl)-4-methoxy-1H-benzo[d]imidazole-6-carboxylic acid] | ≤ 1 | 14100 | – | – |
| COc1cc(C(=O)O)cc2c1nc(Cc1c(F)cc(-c3ccc(F)c(OCc4ccc(Cl)cc4F)c3)c3c1CCO3)n2C[C@@H]1CCO1 [Compound 105, (S)-2-((7-(3-((4-chloro-2-fluorobenzyl)oxy)-4-fluorophenyl)-5-fluoro-2,3-dihydrobenzofuran-4-yl)methyl)-4-methoxy-1-(oxetan-2-ylmethyl)-1H-benzo[d]imidazole-6-carboxylic acid] | 1 to 5 | 6900 | – | – |
| COc1cc(C(F)(F)F)ccc1COc1cccc(-c2cc(F)c(Cc3nc4ccc(C(=O)O)cc4n3C[C@@H]3CCO3)c3c2OCC3)n1 [Compound 71, (S)-2-((5-fluoro-7-(6-((2-methoxy-4-(trifluoromethyl)benzyl)oxy)pyridin-2-yl)-2,3-dihydrobenzofuran-4-yl)methyl)-1-(oxetan-2-ylmethyl)-1H-benzo[d]imidazole-6-carboxylic acid] | ≤ 1 | – | Ratio ≥10 | IC50 (hERG channel; human, CHO-hERG-DUO cells stably expressing hERG): > 30000 nM |
| COc1cc(C(=O)O)cc2c1nc(Cc1c(F)cc(-c3ccc(F)c(OCc4ccc(Cl)cc4F)n3)c3c1CCO3)n2C[C@@H]1CCO1 [Compound 101, (S)-2-((7-(6-((4-chloro-2-fluorobenzyl)oxy)-5-fluoropyridin-2-yl)-5-fluoro-2,3-dihydrobenzofuran-4-yl)methyl)-4-methoxy-1-(oxetan-2-ylmethyl)-1H-benzo[d]imidazole-6-carboxylic acid] | ≤ 1 | 22500 | Ratio ≥10 | cumulative food intake inhibition rate 0-2.5 hours ([2]; 0-2.5 hours): 97%; cumulative food intake inhibition rate 0-5 hours ([2]; 0-5 hours): 89%; cumulative food intake inhibition rate 0-12 hours ([2]; 0-12 hours): 75% |
| COc1cc(C(=O)O)cc2c1nc(Cc1c(F)cc(-c3nc(OCc4ccc(C)cc4F)ncc3F)c3c1CCO3)n2C[C@@H]1CCO1 [Compound 134] | ≤ 1 | 15700 | Ratio ≥10 | – |
| COc1cc(C(=O)O)cc2c1nc(Cc1c(F)cc(-c3cccc(OCc4ccc(Cl)cc4F)n3)c3c1CCO3)n2CC1(CF)CC1 [Compound 92, 2-((7-(6-((4-Chloro-2-fluorobenzyl)oxy)pyridin-2-yl)-5-fluoro-2,3-dihydrobenzofuran-4-yl)methyl)-1-((1-(fluoromethyl)cyclopropyl)methyl)-4-methoxy-1H-benzo[d]imidazole-6-carboxylic acid] | – | 23700 | – | – |
| COc1cc(C(F)(F)F)ccc1COc1cccc(-c2cc(F)c(Cc3nc4ccc(C(=O)O)cc4n3CC3(CF)CC3)c3c2OCC3)n1 [Compound 83, 2-((5-Fluoro-7-(6-((2-methoxy-4-(trifluoromethyl)benzyl)oxy)pyridin-2-yl)-2,3-dihydrobenzofuran-4-yl)methyl)-1-((1-(fluoromethyl)cyclopropyl)methyl)-1H-benzo[d]imidazole-6-carboxylic acid] | – | 14000 | – | – |
| COc1cc(C(=O)O)cc2c1nc(Cc1c(F)cc(-c3cccc(OCc4ccc(C#N)cc4F)n3)c3c1CCO3)n2CC1(CF)CC1 [Compound 93, 2-((7-(6-((4-Cyano-2-fluorobenzyl)oxy)pyridin-2-yl)-5-fluoro-2,3-dihydrobenzofuran-4-yl)methyl)-1-((1-(fluoromethyl)cyclopropyl)methyl)-4-methoxy-1H-benzo[d]imidazole-6-carboxylic acid] | ≤ 1 | 8440 | – | – |
| O=C(O)c1ccc2nc(Cc3c(F)cc(-c4cccc(OCc5ccc(Cl)cc5F)n4)c4c3CCO4)n(CC3(CF)CC3)c2c1 [Compound 14, 2-((7-(6-((4-chloro-2-fluorobenzyl)oxy)pyridin-2-yl)-5-fluoro-2,3-dihydrobenzofuran-4-yl)methyl)-1-((1-(fluoromethyl)cyclopropyl)methyl)-1H-benzo[d]imidazole-6-carboxylic acid] | 1 to 5 | 12700 | – | – |
| COc1cc(C(=O)O)cc2c1nc(Cc1c(F)cc(-c3cccc(OCc4ccc(Cl)cc4OC(F)F)n3)c3c1CCO3)n2CC1(CF)CC1 [Compound 87, 2-((7-(6-((4-Chloro-2-(difluoromethoxy)benzyl)oxy)pyridin-2-yl)-5-fluoro-2,3-dihydrobenzofuran-4-yl)methyl)-1-((1-(fluoromethyl)cyclopropyl)methyl)-4-methoxy-1H-benzo[d]imidazole-6-carboxylic acid] | ≤ 1 | 12200 | – | IC50 (hERG channel; CHO-hERG-DUO cells): > 30000 nM |
| COc1cc(C(=O)O)cc2c1nc(Cc1c(F)cc(-c3nc(OCc4ccc(Cl)cc4F)ncc3F)c3c1CCO3)n2C[C@@H]1CCO1 [Compound 118, (S)-2-((7-(2-((4-chloro-2-fluorobenzyl)oxy)-5-fluoropyrimidin-4-yl)-5-fluoro-2,3-dihydrobenzofuran-4-yl)methyl)-4-methoxy-1-(oxetan-2-ylmethyl)-1H-benzo[d]imidazole-6-carboxylic acid] | ≤ 1 | 8300 | Ratio ≥10 | – |
| COc1cc(C(=O)O)cc2c1nc(Cc1c(F)cc(-c3ccc(F)c(OCc4ccc(C)cc4F)n3)c3c1CCO3)n2C[C@@H]1CCO1 [Compound 132, (S)-2-((7-(5-fluoro-6-((2-fluoro-4-methylbenzyl)oxy)pyridin-2-yl)-5-fluoro-2,3-dihydrobenzofuran-4-yl)methyl)-4-methoxy-1-(oxetan-2-ylmethyl)-1H-benzo[d]imidazole-6-carboxylic acid] | ≤ 1 | 19500 | Ratio ≥10 | – |
| N#CCC1(Cn2c(Cc3c(Cl)cc(-c4cccc(OCc5ccc(C#N)cc5F)n4)c4c3CCO4)nc3ccc(C(=O)O)nc32)CC1 [Compound 19, 2-((5-chloro-7-(6-((4-cyano-2-fluorobenzyl)oxy)pyridin-2-yl)-2,3-dihydrobenzofuran-4-yl)methyl)-3-((1-(cyanomethyl)cyclopropyl)methyl)-3H-imidazo[4,5-b]pyridine-5-carboxylic acid] | 1 to 5 | – | – | – |
